The test system of one test is HRSV. The conditions noted are these: prophylactic use, high risk infants; cited from earlier work.
Test [1] deals with hMPV A2 TN/94-49. Kind of test: HMPV antiviral assay Method 1 (LLC-MK2 cells, ATP-Lite). In kind it is cell-based. The conditions noted are these: hMPV A2 TN/94-49, LLC-MK2 cells. The method in brief:
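LLC-MK2 cells infected in suspension with hMPV A2 TN/94-49 at MOI 0.005, 5,000 cells/well, in serum-free OptiMEM with 2 μg/mL TPCK-trypsin (final) and CaCl2; compounds in duplicate, 10 points, 2 μM top, 2.5-fold dilutions. After 7 days at 37 °C, cell health by ATP-Lite luminescence; EC50 by four-parameter fit.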

For test [2], the system named is hMPV A2 TN/94-49. Briefly: HMPV antiviral assay Method 2 (LLC-MK2 cells with CP-100-356, ATP-Lite). In kind it is cell-based. As to conditions: hMPV A2 TN/94-49, LLC-MK2 cells, 4 μM CP-100-356, Method 2. In short, it runs like this:
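LLC-MK2 cells infected in suspension with hMPV A2 TN/94-49 at MOI 0.16, in serum-free OptiMEM with final 2 μg/mL TPCK-trypsin and 2 μM CP-100-356 (P-gp inhibitor). Compounds tested in duplicate, top 200 nM, 2.5-fold, 10 points; 7 days at 37 °C. ATP-Lite cell health normalised to controls; EC50 by four-parameter fit.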

Test [3] concerns HUMAN RSV-A (“LONG” STRAIN). Kind of test: RSV-A assay (CPE, ATPlite) in Hep-2 cells. Format: cell-based. The conditions noted are these: human respiratory syncytial virus, 120 h, MOI 0.1, 5-day incubation. The method in brief: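 Hep-2 cells (8,000/well) given 2-fold serial compound dilutions in duplicate, then infected with RSV-A Long strain at MOI 0.1. After 5 days, virus-induced cytopathic effect quantified as cellular ATP by ATPlite luminescence, against virus-only and uninfected controls; EC50 reported in ranges.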

As to Palivizumab, the “effective in reducing hospitalizations” value with HRSV is 60%.

As a reminder, the EC50 is the concentration at which the effect is half-maximal. High values mean a less potent agent, low ones a more potent agent. On to `COc1cc(C(=O)NC[C@@](O)(c2ccc(F)cc2)c2cc3c(c(-c4cc(Cl)c(F)cc4F)n2)OC[C@]3(C)C(N)=O)cc2cn(C3CC3)nc12` [Example 12], for which the EC50 is below 500 nM in the test on hMPV A2 TN/94-49 [1], below 200 nM in the test with hMPV A2 TN/94-49 [2] and below 200 nM in test [3].

In the case of `COc1cc(C(=O)NC[C@@](O)(c2ccccc2)c2cc3c(c(-c4cc(Cl)ccc4F)n2)OC[C@]3(C)C(N)=O)cc2cn(C(F)F)nc12` [Example 145], the EC50 is below 500 nM in the test with hMPV A2 TN/94-49 [1], below 200 nM with hMPV A2 TN/94-49 [2] and below 200 nM in test [3].

`COc1cc(C(=O)NC[C@@](O)(c2ccccc2)c2cc3c(c(-c4ccc(F)c(Cl)c4Cl)n2)OC[C@]3(C)C(N)=O)cc2cc(Cl)cnc12` [Example 294]: the EC50 is below 500 nM in the test with hMPV A2 TN/94-49 [1], below 200 nM in the test on hMPV A2 TN/94-49 [2] and below 200 nM in test [3].

Take `C[C@]1(C(N)=O)COc2c1cc([C@@](O)(CNC(=O)c1cc(OC3CC3)c3nn(C(F)F)cc3c1)C1CC(F)(F)C1)nc2-c1cc(F)c(F)cc1F` [Example 34]: the EC50 was below 500 nM in the test with hMPV A2 TN/94-49 [1], below 200 nM in the test with hMPV A2 TN/94-49 [2] and below 200 nM in test [3].

Regarding `C[C@]1(C(N)=O)COc2c1cc([C@@](O)(CNC(=O)c1cc(OC3CC3)c3nn(C4(F)CC4)cc3c1)c1ccccc1)nc2-c1cccc(Cl)c1Cl` [Example 266], the EC50 in the test on hMPV A2 TN/94-49 [1] is below 500 nM; with hMPV A2 TN/94-49 [2], below 200 nM; in test [3], below 200 nM.

Turning to `COc1cc(C(=O)NC[C@@](O)(c2ccccc2)c2cc3c(c(-c4cc(Cl)c(F)cc4F)n2)OC[C@]3(C)C(N)=O)cc2cc(C(F)F)nnc12` [Example 186], the EC50 with hMPV A2 TN/94-49 [1] was above 500 nM; in the test on hMPV A2 TN/94-49 [2] it was below 200 nM; in test [3] it was below 200 nM.

`COc1cc(C(=O)NCC(O)(c2cc3c(c(-c4cc(Cl)c(F)cc4F)n2)OC[C@]3(C)C(N)=O)c2ccc(C)s2)cc2cn(C3CC3)nc12` (stereo partly shown) [Example 470]: the values for the EC50 (with hMPV A2 TN/94-49 [1]; in the test on hMPV A2 TN/94-49 [2]; in test [3]) were below 500 nM, below 200 nM and below 200 nM, respectively.

Turning to `COc1cc(C(=O)NC[C@@](O)(c2cccc(F)c2)c2cc3c(c(-c4ccc(F)c(Cl)c4Cl)n2)OC[C@]3(C)C(N)=O)cc2cn(C(F)F)nc12` [Example 270], the concentration for a half-maximal effect (EC50) in the test on hMPV A2 TN/94-49 [1] was below 500 nM; in the test on hMPV A2 TN/94-49 [2], below 200 nM; in test [3] it was below 200 nM.

For the molecule `COc1cc(C(=O)NC[C@@](O)(c2cccc(F)c2)c2cc3c(c(-c4cc(C(F)(F)F)c(F)cc4F)n2)OC[C@]3(C)C(N)=O)cc2cn(C3CC3)nc12` [Example 295], the figures for the concentration for a half-maximal effect (EC50) (in the test on hMPV A2 TN/94-49 [1]; in the test with hMPV A2 TN/94-49 [2]; in test [3]) were below 500 nM, below 200 nM and below 200 nM, respectively.

For the molecule `COc1cc(C(=O)NC[C@@](O)(c2cccc(F)c2)c2cc3c(c(-c4cc(C(F)(F)F)c(F)cc4F)n2)OC[C@]3(C)C(N)=O)cc2oc(C3CC3)nc12` [Example 297], the EC50 was below 500 nM in the test with hMPV A2 TN/94-49 [1], below 200 nM in the test with hMPV A2 TN/94-49 [2] and below 200 nM in test [3].

The values above are taken from patent US12358921B2, “Antiviral heterocyclic compounds” (priority 2022, dated 2025).
